The values that follow come from patent US7727950B2, “Methods and reagents for assaying protein kinase activity” (The University of Dundee, priority 2002, dated 2010).

Square brackets hold non-standard residues; d marks the D form. Ends that are not written are not given here. pS = N[C@@H](COP(=O)(O)O)C(=O)O Bounds are passed on as bounds.

The test system of assay [1] is peptide LpSFAEPGC conjugated to bovine serum albumin. In words: Immunoblot of phospho-specific antibody with peptide competition (FIG. 1). Conditions: competition studies. The class given is binding. Here is the method:
Aliquots (10 ng or 100 ng) of the peptide LpSFAEPGC (SEQ ID NO: 17) conjugated to bovine serum albumin were spotted on to a nitrocellulose membrane and immunoblotted with the phospho-specific antibody raised against the phospho-peptide immunogen in the presence or absence of the peptides shown on the right. The prefix “p” before S denotes the serine-phosphorylated form of the peptide.
Antibodies that recognise the common seven residue phosphorylated motif (LpSFAEPG) (SEQ ID NO:7) contained within each of the three generic peptide substrates described under results, were raised against the peptide LpSFAEPGC (SEQ ID NO:17) (where pS represents phosphoserine). The C-terminal cysteine residue was added to enable coupling to keyhole limpet haemocyanin. The peptide-protein conjugate was injected into sheep at Diagnostic Scotland (Carluke, U.K.) and the anti-sera purified on protein G-Sepharose (Amersham Pharmacia Biotech) by Dr J. Leitch in this Unit. Antibodies were used at a concentration of 2 μg/ml for immunoblotting and 10-20 μg/ml for detection of phosphorylated peptides in the modified ELISA format. Rabbit anti-sheep antibodies conjugated to peroxidase were obtained from Pierce (Tattenhall, Cheshire, UK) and used at 1/10,000 dilution. […]
(In general: A western blot detects proteins with antibodies after separation by electrophoresis.)

The target of a further assay is T1, CHK1 (Homo sapiens, UniProt O14757).
T1 construct: made in house; host or cells: Sf21 insect cells
T1 sequence (O14757 1-476): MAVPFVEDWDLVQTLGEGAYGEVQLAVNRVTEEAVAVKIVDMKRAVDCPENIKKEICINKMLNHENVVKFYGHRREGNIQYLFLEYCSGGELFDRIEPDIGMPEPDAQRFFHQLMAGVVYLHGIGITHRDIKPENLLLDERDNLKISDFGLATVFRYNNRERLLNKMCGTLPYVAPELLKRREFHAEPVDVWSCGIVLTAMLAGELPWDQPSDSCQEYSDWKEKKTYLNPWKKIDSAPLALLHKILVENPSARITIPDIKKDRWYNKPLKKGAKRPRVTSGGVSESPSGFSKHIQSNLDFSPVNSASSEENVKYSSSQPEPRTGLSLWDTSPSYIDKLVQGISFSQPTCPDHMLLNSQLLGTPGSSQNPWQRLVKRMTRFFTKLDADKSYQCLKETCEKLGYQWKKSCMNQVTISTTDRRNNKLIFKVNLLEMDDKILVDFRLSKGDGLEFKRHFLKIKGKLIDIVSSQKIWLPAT
In words: Kinetic parameters for peptide phosphorylation, radioactive filter-binding assay. The class given is biochemical. The settings on record: Standard Substrate = KKKVSRSGLYRSPSMPENLNRPR
An excerpt: (§1) Apart from the AMP-activated protein kinase (AMPK, a gift from Drs S. Hawley and D. G. Hardie), cGMP-dependent protein kinase (PKG, a generous gift from Drs Susan Lohmann and Ulrich Walter, University of Wurzburg, Germany) and the catalytic subunit of cyclic AMP-dependent protein kinase (PKA, a gift from Dr C. Smythe), which were isolated from rat liver, bovine lung and bovine heart, respectively, all other protein kinases were expressed as either GST-fusion or His-tagged proteins (by a person, a person, Dr A. Paterson or a person, in this Division). The expressed proteins all corresponded to the human sequences apart from the rat Rho-dependent protein kinase (ROCK-II) and rat mitogen-activated protein kinase (MAPK) activated kinase-1a (MAPKAP-K1a, also called RSK). GST-fusion proteins were purified on GSH-agarose (Amersham Pharmacia Biotech, Amersham, UK) and His-tagged proteins on Ni-NTA agarose (Qiagen) essentially according to the manufacturer's instructions. All the protein kinases used in this study are available from Upstate Biotechnology Inc. (Lake Placid, N.Y., USA), apart from the α-isoform of calmodulin-dependent protein kinase II (CaMKII), MAPKAP-K3 and PKG. […]
(§2) All protein kinase assays were linear with respect to time. […] All papers were subsequently washed a further three times in phosphoric acid, once in acetone, then dried and counted for radioactivity. […] The plates were then washed six times (five min per wash) in PBS, 0.1% Tween 20 and binding of the phospho-specific antibody detected by incubating the plates with peroxidase-conjugated anti-sheep antibodies (Pierce). […] Signals were quantitated on LAS-1000IR software (FujiFilm). […]

A further assay deals with T2, CHK2 (Homo sapiens, UniProt O96017).
T2 construct: an additional His-tag at the extreme C-terminus, to aid purification of the full-length product; GST; His-tag (C); made in house; host or cells: E. coli
Described as above. Conditions: Standard Substrate = KKKVSRSGLYRSPSMPENLNRPR
It is filed as biochemical.
Text: as §1, with “RSK).” for “RSK). GST-fusion proteins were purified on GSH-agarose (Amersham Pharmacia Biotech, Amersham, UK) and His-tagged proteins on Ni-NTA agarose (Qiagen) essentially according to the manufacturer's instructions. All the protein kinases used in this study are available from Upstate Biotechnology Inc. (Lake Placid, N.Y., USA), apart from the α-isoform of calmodulin-dependent protein kinase II (CaMKII), MAPKAP-K3 and PKG.”
as §2

For a further assay, the target named is T3, PKCα (Homo sapiens, UniProt P17252).
T3 construct: purchased Calbiochem Novachem Corp; host or cells: Sf21 insect cells
The description is as above. The class given is biochemical. Conditions: Standard Substrate = histone H1.
Text: as §1, §2

The next assay concerns the target T4, ROCKII (Rattus norvegicus, UniProt Q62868).
T4 construct: rat ROCKII[1-543]; made in house; host or cells: Sf21 insect cells
Described as above. The class given is biochemical. The settings on record: Standard Substrate = KEAKEKRQEQIAKRRRLSSLRASTSKSGGSQK
Text: as §1, §2

T2 sequence (O96017 whole entry): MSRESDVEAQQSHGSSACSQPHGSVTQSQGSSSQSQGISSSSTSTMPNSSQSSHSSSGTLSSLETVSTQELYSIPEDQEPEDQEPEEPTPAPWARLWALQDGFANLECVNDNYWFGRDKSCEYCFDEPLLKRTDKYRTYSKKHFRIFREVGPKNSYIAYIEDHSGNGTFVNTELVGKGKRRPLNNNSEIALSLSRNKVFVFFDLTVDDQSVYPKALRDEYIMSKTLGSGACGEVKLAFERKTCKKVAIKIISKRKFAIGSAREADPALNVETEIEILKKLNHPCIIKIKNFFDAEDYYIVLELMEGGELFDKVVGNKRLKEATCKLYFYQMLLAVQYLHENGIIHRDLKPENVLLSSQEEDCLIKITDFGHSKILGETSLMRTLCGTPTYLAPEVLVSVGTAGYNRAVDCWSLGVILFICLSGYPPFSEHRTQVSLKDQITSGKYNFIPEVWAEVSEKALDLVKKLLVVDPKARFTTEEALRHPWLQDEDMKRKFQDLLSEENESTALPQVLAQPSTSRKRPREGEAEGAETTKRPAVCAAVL
T4 sequence (Q62868 1-543): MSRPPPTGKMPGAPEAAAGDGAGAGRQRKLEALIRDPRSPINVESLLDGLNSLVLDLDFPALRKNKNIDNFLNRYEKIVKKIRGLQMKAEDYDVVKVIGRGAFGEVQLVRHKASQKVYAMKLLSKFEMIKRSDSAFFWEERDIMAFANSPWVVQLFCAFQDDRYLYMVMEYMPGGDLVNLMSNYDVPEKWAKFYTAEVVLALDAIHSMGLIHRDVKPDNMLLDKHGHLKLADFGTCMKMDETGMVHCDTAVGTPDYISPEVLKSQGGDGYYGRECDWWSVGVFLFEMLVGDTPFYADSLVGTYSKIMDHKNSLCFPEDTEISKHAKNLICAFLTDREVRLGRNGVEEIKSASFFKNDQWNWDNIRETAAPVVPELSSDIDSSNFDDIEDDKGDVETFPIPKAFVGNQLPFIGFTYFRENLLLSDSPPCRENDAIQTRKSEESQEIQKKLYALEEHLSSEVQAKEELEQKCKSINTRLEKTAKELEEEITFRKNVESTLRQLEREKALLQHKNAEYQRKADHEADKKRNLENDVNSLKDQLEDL

With “LpSFAEPG (L[pS]FAEPG) [seven residue phospho-peptide antigen, pS is phosphoserine]”, in assay [1], the “neutralisation of the phosphopeptide antibody by pre-incubation with peptide” value is listed as “neutralised”.

The term Km denotes the substrate concentration at which the rate is half of its maximum. As for RARTLSFAEPG, the figures for the Michaelis constant (Km) on CHK1 and at CHK2 were 5 µM and greater than 300 µM, respectively.

For the substance RRRLSFAEPG, the Michaelis-Menten constant (Km) at PKCα is greater than 500 µM; on ROCKII, greater than 100 µM.
